ChEMBL document CHEMBL5465560, “Selectivity Literature for EUbOPEN Chemogenomic Library” (2024)
Values belong to the molecule of their own block, whether it stands above or below them.

What was measured:
[1] = target: Tyrosine-protein kinase CSK (Homo sapiens) (UniProt P41240); experiment: Selectivity interaction (ActivX KiNativ screen (kinase selectivity in THP-1 cell lysates)) EUB0000639a CSK; format: subcellular; settings: lysate, at 5 µM
SRSF protein kinase 1 = SRSF protein kinase 1 (Homo sapiens, UniProt Q96SB4); settings: at 10 µM
[2] = target: T1, Ankyrin repeat and protein kinase domain-containing protein 1 (Homo sapiens) (UniProt Q8NFD2); experiment: Selectivity interaction (KinomeScan (DiscoverX)) EUB0001079a ANKK1; settings: at 1 µM
T1 sequence (whole entry): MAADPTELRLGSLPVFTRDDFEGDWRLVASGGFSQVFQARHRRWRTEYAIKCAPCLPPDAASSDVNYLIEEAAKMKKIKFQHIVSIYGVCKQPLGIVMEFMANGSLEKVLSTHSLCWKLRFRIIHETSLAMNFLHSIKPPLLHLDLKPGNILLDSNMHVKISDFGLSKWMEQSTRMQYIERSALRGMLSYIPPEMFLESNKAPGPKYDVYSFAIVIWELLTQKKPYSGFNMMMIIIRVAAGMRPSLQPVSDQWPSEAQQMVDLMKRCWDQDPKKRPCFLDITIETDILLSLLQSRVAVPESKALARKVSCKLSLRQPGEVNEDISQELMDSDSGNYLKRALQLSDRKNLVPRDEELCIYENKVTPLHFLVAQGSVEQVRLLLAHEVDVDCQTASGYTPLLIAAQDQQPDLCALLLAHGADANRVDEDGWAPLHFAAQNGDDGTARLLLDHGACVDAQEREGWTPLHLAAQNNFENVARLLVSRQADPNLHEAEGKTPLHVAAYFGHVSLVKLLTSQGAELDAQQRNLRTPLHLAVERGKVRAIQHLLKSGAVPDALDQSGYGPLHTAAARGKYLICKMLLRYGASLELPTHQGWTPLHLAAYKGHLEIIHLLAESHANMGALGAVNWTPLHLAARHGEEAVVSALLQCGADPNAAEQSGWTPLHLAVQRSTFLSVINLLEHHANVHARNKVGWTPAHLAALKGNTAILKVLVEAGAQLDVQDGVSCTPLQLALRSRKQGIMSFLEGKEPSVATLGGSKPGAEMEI

[3] = target: T2, Aurora kinase A (Homo sapiens) (UniProt O14965); experiment: Selectivity interaction (ProQinase) EUB0000171b STK6
T2 sequence (whole entry): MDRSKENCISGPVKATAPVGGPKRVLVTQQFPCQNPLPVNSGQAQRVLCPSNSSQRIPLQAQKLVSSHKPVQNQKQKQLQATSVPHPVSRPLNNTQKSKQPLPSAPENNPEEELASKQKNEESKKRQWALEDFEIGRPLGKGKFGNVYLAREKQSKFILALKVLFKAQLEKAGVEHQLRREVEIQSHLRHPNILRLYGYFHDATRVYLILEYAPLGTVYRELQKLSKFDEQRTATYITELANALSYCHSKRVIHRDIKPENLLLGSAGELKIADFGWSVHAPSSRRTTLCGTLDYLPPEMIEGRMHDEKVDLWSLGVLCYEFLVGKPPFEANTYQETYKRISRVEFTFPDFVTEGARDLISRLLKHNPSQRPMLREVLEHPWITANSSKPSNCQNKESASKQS

[4] = target: T3, Serine/threonine-protein kinase 17A (Homo sapiens) (UniProt Q9UEE5); experiment: Selectivity interaction (Upstate Kinase Profiler service (Millipore)) EUB0000056c STK17A; settings: at 1 µM
T3 sequence (whole entry): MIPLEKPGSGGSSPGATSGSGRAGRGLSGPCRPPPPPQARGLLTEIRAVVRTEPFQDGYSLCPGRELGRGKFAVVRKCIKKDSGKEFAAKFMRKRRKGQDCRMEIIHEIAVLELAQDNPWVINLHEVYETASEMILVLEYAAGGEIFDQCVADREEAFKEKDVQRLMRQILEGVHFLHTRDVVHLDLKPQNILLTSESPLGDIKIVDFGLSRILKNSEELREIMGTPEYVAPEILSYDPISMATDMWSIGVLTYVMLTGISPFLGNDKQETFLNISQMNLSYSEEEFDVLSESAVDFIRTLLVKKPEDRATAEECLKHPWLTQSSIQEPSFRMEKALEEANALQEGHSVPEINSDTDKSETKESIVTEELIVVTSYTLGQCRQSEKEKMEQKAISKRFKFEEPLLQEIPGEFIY

[5] = target: Tyrosine-protein kinase Fyn (Homo sapiens) (UniProt P06241); experiment: Selectivity interaction (Kinase panel (KiNativ target engagement assay in Jurkat cells)) EUB0001635a FYN; format: cell-based; settings: Selectivity number of off-targets 0.0, Selectivity number of targets 233.0, Source Knowledge https://www.sciencedirect.com/science/article/pii/S2451945619300674?via%3Dihub, at 1 µM
Chain of Tyrosine-protein kinase Fyn (Homo sapiens) (P06241 2-537 limits assumed): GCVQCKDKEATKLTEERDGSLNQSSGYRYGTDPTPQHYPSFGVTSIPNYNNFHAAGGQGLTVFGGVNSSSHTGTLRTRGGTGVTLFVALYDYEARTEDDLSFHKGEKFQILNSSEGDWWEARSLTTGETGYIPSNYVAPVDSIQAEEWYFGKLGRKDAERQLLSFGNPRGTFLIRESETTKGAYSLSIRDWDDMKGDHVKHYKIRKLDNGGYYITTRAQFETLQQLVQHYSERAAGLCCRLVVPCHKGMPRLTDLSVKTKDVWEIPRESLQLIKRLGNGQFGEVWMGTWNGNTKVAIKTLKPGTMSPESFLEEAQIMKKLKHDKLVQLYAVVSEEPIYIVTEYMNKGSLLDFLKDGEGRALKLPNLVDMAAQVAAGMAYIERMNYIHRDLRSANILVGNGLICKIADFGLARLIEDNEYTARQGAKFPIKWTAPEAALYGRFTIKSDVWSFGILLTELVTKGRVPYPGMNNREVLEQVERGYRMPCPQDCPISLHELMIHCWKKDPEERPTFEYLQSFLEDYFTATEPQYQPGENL

Chain of Tyrosine-protein kinase CSK (Homo sapiens) (P41240 2-450 limits assumed): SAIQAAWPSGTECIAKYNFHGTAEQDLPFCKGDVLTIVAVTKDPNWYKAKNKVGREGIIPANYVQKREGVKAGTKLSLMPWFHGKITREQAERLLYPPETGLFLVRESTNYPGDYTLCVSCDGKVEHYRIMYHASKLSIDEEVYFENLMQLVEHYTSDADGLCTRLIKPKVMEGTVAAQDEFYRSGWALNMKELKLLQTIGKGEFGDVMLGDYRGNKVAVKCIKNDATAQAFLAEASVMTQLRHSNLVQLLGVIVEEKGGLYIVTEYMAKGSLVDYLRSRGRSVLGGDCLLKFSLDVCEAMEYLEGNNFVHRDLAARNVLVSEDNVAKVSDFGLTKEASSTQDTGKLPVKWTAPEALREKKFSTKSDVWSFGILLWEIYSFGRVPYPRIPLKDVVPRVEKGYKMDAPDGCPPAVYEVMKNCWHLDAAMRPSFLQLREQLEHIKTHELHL
Chain of SRSF protein kinase 1 (Q96SB4 whole entry, the tested form may be a part): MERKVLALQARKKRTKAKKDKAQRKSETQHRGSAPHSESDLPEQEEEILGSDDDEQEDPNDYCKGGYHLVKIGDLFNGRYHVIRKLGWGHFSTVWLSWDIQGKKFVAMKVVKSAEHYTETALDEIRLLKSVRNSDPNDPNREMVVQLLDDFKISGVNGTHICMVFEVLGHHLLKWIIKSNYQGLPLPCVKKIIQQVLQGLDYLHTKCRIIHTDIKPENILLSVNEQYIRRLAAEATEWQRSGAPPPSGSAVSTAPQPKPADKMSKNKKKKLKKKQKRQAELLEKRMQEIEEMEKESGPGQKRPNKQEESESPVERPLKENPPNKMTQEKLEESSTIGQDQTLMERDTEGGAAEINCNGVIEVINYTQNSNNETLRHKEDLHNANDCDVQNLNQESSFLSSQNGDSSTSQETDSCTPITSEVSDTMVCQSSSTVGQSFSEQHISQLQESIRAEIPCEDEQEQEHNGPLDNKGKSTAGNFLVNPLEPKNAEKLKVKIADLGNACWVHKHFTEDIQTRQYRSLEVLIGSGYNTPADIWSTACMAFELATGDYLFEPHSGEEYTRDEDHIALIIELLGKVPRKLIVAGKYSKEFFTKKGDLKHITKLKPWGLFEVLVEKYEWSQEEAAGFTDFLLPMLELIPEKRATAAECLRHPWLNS

% of inhibition [1]: -2.6%
Compound: CC[C@@H]1[C@H](F)C(=O)N[C@@H]1COc1nccc2cc(C(N)=O)c(OC)cc12 [ZIMLOVISERTIB]

% of control (SRSF protein kinase 1): 100%
Compound: CCN(CC)CCCCNc1ncc2cc(-c3cc(OC)cc(OC)c3)c(NC(=O)NC(C)(C)C)nc2n1

Compound: Nc1cnc(N2CCc3cc(S(=O)(=O)Nc4c(F)cc(Cl)cc4F)cc(N4CCCC4=O)c32)nc1 [TP-020n]
% of control [2]: 100%

% of control ([3]; at 1 µM): 74%
% of control ([3]; at 5 µM): 34%
Compound: C=CC(=O)Nc1cccc(C(=O)Nc2ccc(Nc3cc(-c4[nH]c(SC)nc4C)ccn3)cc2)c1

% of inhibition [4]: 88%
Compound: Cc1ccc(-c2ccc3c(ccc4sc5c(c43)NC[C@@H](C)NC5=O)n2)cn1

Compound: C=CC(=O)Nc1ccc(C(=O)Nc2[nH]nc3c2CN(C(=O)N[C@H](CN(C)C)c2ccccc2)C3(C)C)cc1
% of engagement [5]: 6.2%
